The source of these data is patent US20250160328A1, “COMPOSITIONS AND METHODS FOR REDUCING PARASITIC INFESTATION OF HONEY BEE HIVES” (University of Georgia Research Foundation, Inc., priority 2022, published 2025).

Where “and” joins values, the source holds several entries; their conditions need not be identical. Equal entries are not always repeated.

Data set [1] has as its system honey bees. In words: Adult Honeybee Atoxicity Assays (mortality cages). The method, then:
In all instances, isocaloric sugar feed solutions were used (all honey bees were exposed to feed of equivalent sugar concentration). Both sets of experiments also tested the safety of methanol as a solvent for carrying the chlorantraniliprole. Mortality cages used approximately 20-50 bees per cage replicated across numerous colonies. Each cage was treated with one experimental dose of feed. Each colony donates a cage of bees to each dose in a full factorial experiment in line with tests used for EPA evaluation. Mortality was recorded at 24 hours and 48 hours.
Treatments included chlorantraniliprole concentrations of: 0 (w/methanol), 0 (w/o methanol), 0 (positive dimethoate control), 5, 15, 65, 250 μg/mL.

For the next data set, the system named is small hive beetle adults. Kind of data set: SHB Adult Exposure Toxicity Assay (contact). The format is in vivo, Aethina tumida. The protocol: Testing on chlorantraniliprole contact effectiveness was also conducted on small hive beetle adults. Each plate in which small hive beetles were placed contained an approximately 1 in×1 in square of absorbent shop towel located in the middle of the pot, soaked with solution via pipette. Tests included a methanol-negative (1:1 sugar to water/w) control group with 6 plates of 8 individuals, a methanol-positive (1:1 sugar to water/w solution with methanol then added in to be 1/6 of volume) control group with 7 plates of 8 individuals, a 5 μg treatment group (same as methanol-positive control with 5 μg a.i. added) with 7 plates of 8 individuals, and a 10 μg group (same as methanol-positive control with 10 μg a.i. added) with 7 plates of 8 individuals. Numbers of live beetles were tallied at the end of the test period.

A further data set concerns adult small hive beetles. In words: SHB Adult Feed Toxicity and Reproduction Assay. It is filed as in vivo, Aethina tumida. The method, then:
In-feed testing with adult small hive beetles was done with small hive beetle adults taken from colonies in the field and individuals reared in-lab. Adults from the field and in-lab were given three days to acclimate together in a large container with feed (2 parts pollen supplement; 1 part pollen; 1/2 part honey) in an incubator at 30 C. Simultaneously, 50 mg of Chlorantraniliprole was suspended in 50 mL (1.25 g/mL) glycerol, which was then mixed into 100 g feed, resulting in a concentration of 0.3 mg Chlorantraniliprole per 1 gram feed. A concentration of 100 μg of active ingredient per 1 gram feed was then achieved via dilution with feed and glycerol solution. Using serial dilution, feeds with varying concentrations of active ingredient were mixed, producing feeds with 100 μg, 10 μg, 1 μg, 0 μg (control) active ingredient per 1 g feed. Following the acclimation period, approximately 10 adult small hive beetles (some pots contained more than 10 individuals, but no more than 12) were randomly assigned to 32 pots, with 8 pots randomly assigned to each treatment (100 μg, 10 μg, 1 μg, 0 μg Chlorantraniliprole). Mortality and reproduction were then monitored at 4, 6, 18 and 34 days.

The next data set concerns small hive beetle (SHB). In words: Field Assay: SHB infestation of pollen supplement patties in hives. Particulars: approximately 10 μg chlorantraniliprole per 1 g protein feed. The format is in vivo, Aethina tumida. The protocol:
FIG. 2 is a bar graph of the experimental results from FIG. 1, showing the infestation rates of protein substitute mixed with concentrated solution of chlorantraniliprole, methanol, and glycerol according to trial instructions compared to untreated/control supplementary feed. Instructions achieved approximately 10 μg chlorantraniliprole per 1 g protein feed. Briefly, chlorantraniliprole was dissolved in methanol at a ratio of 1 mg chlorantraniliprole to 1 ml methanol via agitation/stirring. Chlorantraniliprole-methanol solution was cooled to −20° C. and then suspended/mixed into glycerol also cooled to −20° C. and stored between 4° C. and −20° C. to create a shelf-stable product. Product was then mixed into lethal attractant/supplementary feed at a rate of 50 ml formulated product per 1 kg feed or attractant via either mechanical or hand mixing at ambient temperature (200 ml of 80% glycerol/20% methanol was added to 4 kg of protein feed (i.e., 40 ml glycerol and 10 ml methanol per 1 kg protein feed). Treated attractant/feed mixture was then ready for deployment in the honey colony.
Pollen supplement was weighed out into two masses, each approximately 4 kg. To create the control pollen supplement patties, 200 ml of 80% glycerol, 20% methanol by volume solution was added to the pollen supplement mass. […]

For the next data set, the system named is adult carabid beetles. The note with it: Larson et al., Pest Manag. Sci. 2012; cited from earlier work.
The test system of data set [2] is honey bees. Particulars: cited from earlier work; for intoxication symptoms to honey bees: under certain test conditions, Minnesota Department of Agriculture website.
In the next data set the test system is bumblebee colony. Particulars: in vivo; cited from earlier work.
The mark [3] stands for this setting: 10 μg/g chlorantraniliprole in feed.
[4] abbreviates: 100 μg/g chlorantraniliprole in feed.

As to `CO` [methanol], the “toxicity of the solvent to honey bees” value with honey bees [1] (methanol in sugar feed (30% by volume in set one) versus no methanol) is “No evidence of any toxicity”.
For `CNC(=O)c1cc(Cl)cc(C)c1NC(=O)c1cc(Br)nn1-c1ncccc1Cl` [chlorantraniliprole], the “mortality of adult small hive beetles via contact exposure” value in the data set on small hive beetle adults (5 μg and 10 μg a.i. on soaked shop towel in sugar water/methanol) is listed as “no evidence of elevated mortality”. For the same compound, in the data set with small hive beetle adults (5 μg and 10 μg a.i., contact exposure, end of test period), the “survival of adult small hive beetles” value is “all adult small hive beetles survived the experiment”. The “SHB larvae observed (reproduction)” value in the data set with adult small hive beetles (1 μg/g chlorantraniliprole in feed) was “few larvae were observed but subsequently died while still in their first or second instars”; in the data set with adult small hive beetles (setting [3]) it was “No evidence of any larvael SHB”; with adult small hive beetles (setting [4]) it was “No evidence of any larvael SHB”. For the same compound, the “mortality of adult small hive beetles” value with adult small hive beetles (setting [3]) is “Elevated mortality”. Moreover, in the data set with adult small hive beetles (setting [4]), the “time of exposure by which all adult small hive beetles were dead” value is reported as no more than 6 days. The “SHB infestation of patties in the five day field trial period” value with small hive beetle (SHB) (5 days in hives) was “remained free of SHB infestation”. Moreover, the “SHB infestation of supplementary food after two weeks of incubation to hatch eggs” value in the data set with small hive beetle (SHB) (5 days in hives then 14 days at 30 C) is “remained SHB-infestation free and 10/10”. In addition, the “sublethal effect observed in honeybees” value in the data set with honey bees [1] (250 μg/mL, the very highest dose) is on record as “Sublethal lethargy”. The “adult bee mortality at effective control concentrations” value with honey bees [1] (USDA-standard laboratory trials, FIG. 4) is on record as “no adult bee mortality”. Also, the “honey bee mortality in relation to dose” value in the data set on honey bees [1] (set one 1.25-10 μg/mL, set two 5-250 μg/mL in sugar feed, 24 hours and 48 hours) is “no significant increase in honey bee mortality”. Also, in the data set with adult carabid beetles, the “in-field toxicity to adult carabid beetles” value is given as “no evidence of apparent in-field toxicity”. Besides, the “LD50 to Apis mellifera (EPA 2008)” value in the data set with honey bees [2] (EPA registration documentation as a lawn-treatment) is listed as greater than 0.1 mg/bee. In the data set with honey bees [2] (oral), the “oral toxicity (LD50) for bees, EPA Data” value was “exceeds 100 μg a.i. per bee”. In addition, the “intoxication symptoms to honey bees” value with honey bees [2] is on record as “little or no intoxication symptoms”. The “fold less toxic than clothianidin to Apis mellifera” value in the data set with honey bees [2] (versus a comparable neonicotinoid, clothianidin) was “more than 2000 ×”. The “effects on bumblebee colony growth or mortality” value in the data set with bumblebee colony was “no detectable negative effects”.
As to `Cc1cc(C(F)(C(F)(F)F)C(F)(F)F)ccc1NC(=O)c1cccc(I)c1C(=O)NC(C)(C)CS(C)(=O)=O` [flubendiamide], the “intoxication symptoms to honey bees” value with honey bees [2] is reported as “little or no intoxication symptoms”.
